The source of these data is patent publication US20180110762A1, “Compositions Methods for Treating Chronic Kidney Disease” (Merck Sharp & Dohme Corp, priority 2015, published 2018).

Structures are written as SMILES.

In this test the target is T1, αvβ3 purified from 293 cells overexpressing αvβ3 (Homo sapiens, UniProt P05106+P06756).
T1 construct: made in house; host or cells: 293 cells overexpressing αvβ3
T1 sequence (P06756 31-889 limits assumed): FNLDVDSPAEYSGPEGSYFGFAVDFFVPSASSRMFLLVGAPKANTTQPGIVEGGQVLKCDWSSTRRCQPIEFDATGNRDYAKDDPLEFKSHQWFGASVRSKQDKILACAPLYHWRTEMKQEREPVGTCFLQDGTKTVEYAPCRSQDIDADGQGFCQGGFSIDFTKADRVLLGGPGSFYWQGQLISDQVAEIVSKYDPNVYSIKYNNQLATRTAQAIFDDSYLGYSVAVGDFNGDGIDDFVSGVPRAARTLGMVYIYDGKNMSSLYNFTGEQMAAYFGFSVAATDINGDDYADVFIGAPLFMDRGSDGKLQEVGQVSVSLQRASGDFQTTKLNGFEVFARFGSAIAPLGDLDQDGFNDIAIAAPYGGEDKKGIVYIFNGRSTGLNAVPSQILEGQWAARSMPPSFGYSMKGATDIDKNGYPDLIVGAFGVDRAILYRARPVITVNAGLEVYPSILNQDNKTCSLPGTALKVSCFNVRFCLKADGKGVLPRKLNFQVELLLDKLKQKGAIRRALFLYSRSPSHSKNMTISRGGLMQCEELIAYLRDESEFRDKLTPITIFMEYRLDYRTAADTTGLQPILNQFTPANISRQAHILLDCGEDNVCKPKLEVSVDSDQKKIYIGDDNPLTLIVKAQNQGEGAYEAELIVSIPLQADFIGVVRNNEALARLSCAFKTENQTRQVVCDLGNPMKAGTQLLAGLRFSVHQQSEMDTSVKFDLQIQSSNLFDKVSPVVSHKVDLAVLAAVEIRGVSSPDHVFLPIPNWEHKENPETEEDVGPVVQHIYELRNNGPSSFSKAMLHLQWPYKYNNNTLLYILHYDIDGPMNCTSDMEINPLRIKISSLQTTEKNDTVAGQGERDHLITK
T1 sequence (P06756 891-1048 partner limits assumed): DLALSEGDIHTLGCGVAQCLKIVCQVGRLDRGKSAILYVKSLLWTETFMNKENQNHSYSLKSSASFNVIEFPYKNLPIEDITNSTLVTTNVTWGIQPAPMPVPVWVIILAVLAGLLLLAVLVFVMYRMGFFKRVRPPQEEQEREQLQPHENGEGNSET
T1 sequence (P05106 27-788): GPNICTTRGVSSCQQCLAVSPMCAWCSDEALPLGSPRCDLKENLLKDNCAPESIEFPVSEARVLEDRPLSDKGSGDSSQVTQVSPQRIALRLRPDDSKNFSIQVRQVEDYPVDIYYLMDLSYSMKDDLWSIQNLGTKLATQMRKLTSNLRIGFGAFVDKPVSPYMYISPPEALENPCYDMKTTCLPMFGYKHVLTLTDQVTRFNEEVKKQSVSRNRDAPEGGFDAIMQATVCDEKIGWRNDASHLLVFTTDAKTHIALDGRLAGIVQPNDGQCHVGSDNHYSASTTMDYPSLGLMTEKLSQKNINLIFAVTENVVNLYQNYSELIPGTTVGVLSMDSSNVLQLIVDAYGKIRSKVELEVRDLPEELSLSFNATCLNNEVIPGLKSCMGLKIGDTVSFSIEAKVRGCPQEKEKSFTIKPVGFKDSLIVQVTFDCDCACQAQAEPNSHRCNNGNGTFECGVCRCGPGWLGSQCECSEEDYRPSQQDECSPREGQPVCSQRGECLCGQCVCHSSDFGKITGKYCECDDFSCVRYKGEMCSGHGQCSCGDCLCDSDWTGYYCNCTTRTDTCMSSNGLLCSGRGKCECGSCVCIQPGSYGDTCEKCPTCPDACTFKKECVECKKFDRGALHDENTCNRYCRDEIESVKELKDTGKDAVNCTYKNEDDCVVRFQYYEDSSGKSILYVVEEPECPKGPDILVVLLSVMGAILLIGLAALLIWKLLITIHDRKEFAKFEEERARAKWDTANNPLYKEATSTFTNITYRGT
In words: SPAV3 binding assay (scintillation proximity). An excerpt:
• 1. Wheat germ agglutinin Scintillation Proximity Beads (SPA): Amersham • 2. Octylglucopyranoside: Calbiochem • 3. HEPES: Calbiochem • 4. NaCl: Fisher • 5. CaCl2: Fisher • 6. MgCl2: SIGMA • 7. Phenylmethylsulfonylfluoride (PMSF): SIGMA • 8. Optiplate: PACKARD • 9. (S)-3-(4-(2-(6-aminopyridin-2-yl)ethyl)benzamido)-2-((4-(iodo-^125I)phenyl)sulfonamido)propanoic acid as found in WO0046215 (specific activity 500-1000 Ci/mmole) • 10. Test compound • 11. Purified integrin receptor: αvβ3 was purified from 293 cells overexpressing αvβ3 (Duong et al., J. Bone Min. Res., 8:S378, 1993) according to Pytela (Methods in Enzymology, 144:475, 1987) • 12. Binding buffer: 50 mM HEPES, pH 7.8, 100 mM NaCl, 1 mM Ca^2+/Mg^2+, 0.5 mM PMSF • 13. 50 mM octylglucoside in binding buffer: 50-OG buffer
• 1. Pretreatment of SPA beads: • 500 mg of lyophilized SPA beads were first washed four times with 200 ml of 50-OG buffer and once with 100 ml of binding buffer, and then resuspended in 12.5 ml of binding buffer. • 2. Preparation of SPA beads and receptor mixture • In each assay tube, 2.5 μl (40 mg/ml) of pretreated beads were suspended in 97.5 μl of binding buffer and […] of 50-OG buffer. […] (˜30 ng/μ1) of purified receptor was added to the beads in suspension with stirring at room temperature for 30 minutes. The mixture was then centrifuged at 2,500 rpm in a Beckman GPR Benchtop centrifuge for 10 minutes at 4° C. The pellets were then resuspended in 50 μl of binding buffer and 25 μl of 50-OG buffer. • 3. Reaction • The following were sequentially added into Optiplate in corresponding wells: • (i) Receptor/beads mixture (75 μl) • (ii) 25 μl of each of the following: compound to be tested, binding buffer for total binding or A-8 for non-specific binding (final concentration 1 μM) • (iii) (S)-3-(4-(2-(6-aminopyridin-2-yl)ethyl)benzamido)-2-((4-(iodo-^125I)phenyl)sulfonamido)propanoic acid as found in WO0046215 (specific activity 500-1000 Ci/mmole) in binding buffer (25 μl, final concentration 40 pM) • (iv) Binding buffer (125 μl) • (v) Each plate was sealed with plate sealer from PACKARD and incubated overnight with rocking at 4° C. • 4. Plates were counted using PACKARD TOPCOUNT • 5. % inhibition was calculated as follows: • A=total counts • B=nonspecific counts • C=sample counts
% inhibition=[{(A−B)−(C−B)}/(A−B)]/(A−B)×100
Regarding `Cc1ncc(C(CC(=O)O)CC(=O)CCCCc2ccc3c(n2)NCCC3)cn1` (single isomer, unassigned) [Compound G, 3(S or R)-(2-Methyl-pyrimidin-5-yl)-5-oxo-9-(5,6,7,8-tetrahydro-[1,8]naphthyridin-2-yl)-nonanoic Acid], the IC50 amounted to 0.1 nM. That is a sub-nanomolar value.
In the case of `COc1ccc([C@H](CC(=O)O)N2CCN(CCCc3ccc4c(n3)NCCC43CC3)C2=O)cn1` [Compound C] it was 0.1 nM; in that of `Cc1ncc(C(CC(=O)O)CC(=O)CCCCc2ccc3c(n2)NCCCC3)cn1` [Compound H, 3(R) and 3(S)-(2-Methyl-pyrimidin-5-yl)-5-oxo-9-(5,6,7,8-tetrahydro-5H-pyrido[2,3-b]azepin-2-yl)-nonanoic Acid], 0.2 nM.
Regarding `O=C(O)C[C@H](/C=C/CCCCc1ccc2c(n1)NCCC2)c1cncnc1` [Compound E, 3 (R)-(Pyrimidin-5-yl)-9-(5,6,7,8-tetrahydro-[1,8]-naphthyridin-2-yl)-(E)-non-4-enoic Acid], the IC50 amounted to 0.1 nM.
Then `Cc1ncc([C@@H](CCCCCCc2ccc3c(n2)NCCC3)CC(=O)O)cn1` [Compound F], with 0.1 nM.
Then `CCOc1ccc([C@H](CC(=O)O)N2CCN(CCCc3ccc4c(n3)NCCC4)C2=O)cn1` [Compound D], with 0.1 nM.
